Data: US9365574B2, “Soluble guanylate cyclase activators” (Merck Sharp & Dohme Corp., priority 2010, dated 2016)

Biological target: T1, sGC (Homo sapiens, UniProt Q02108+Q02153)
T1 construct: expressed in transfected cells; host or cells: CHO-K1 (clone #7, CHO-K1/sGC)
T1 sequence (Q02108 1-690): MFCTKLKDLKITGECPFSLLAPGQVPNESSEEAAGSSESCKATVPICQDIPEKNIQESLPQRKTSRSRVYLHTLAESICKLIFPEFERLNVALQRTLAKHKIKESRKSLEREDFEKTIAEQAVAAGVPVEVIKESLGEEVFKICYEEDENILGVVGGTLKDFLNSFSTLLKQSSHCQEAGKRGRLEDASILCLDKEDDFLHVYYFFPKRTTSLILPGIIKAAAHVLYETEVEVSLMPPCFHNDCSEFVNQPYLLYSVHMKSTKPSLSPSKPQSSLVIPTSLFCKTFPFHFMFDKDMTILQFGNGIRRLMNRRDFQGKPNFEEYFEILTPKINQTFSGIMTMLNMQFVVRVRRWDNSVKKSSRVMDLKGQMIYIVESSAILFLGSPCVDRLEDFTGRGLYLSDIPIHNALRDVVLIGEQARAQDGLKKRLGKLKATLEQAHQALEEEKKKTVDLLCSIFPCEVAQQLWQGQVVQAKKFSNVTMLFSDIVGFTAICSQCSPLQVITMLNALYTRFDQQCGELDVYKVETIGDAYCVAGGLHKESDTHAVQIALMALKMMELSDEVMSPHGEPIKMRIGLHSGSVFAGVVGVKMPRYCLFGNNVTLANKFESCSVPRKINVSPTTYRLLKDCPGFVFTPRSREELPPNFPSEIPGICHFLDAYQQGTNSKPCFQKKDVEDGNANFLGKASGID
T1 sequence (Q02153 1-619): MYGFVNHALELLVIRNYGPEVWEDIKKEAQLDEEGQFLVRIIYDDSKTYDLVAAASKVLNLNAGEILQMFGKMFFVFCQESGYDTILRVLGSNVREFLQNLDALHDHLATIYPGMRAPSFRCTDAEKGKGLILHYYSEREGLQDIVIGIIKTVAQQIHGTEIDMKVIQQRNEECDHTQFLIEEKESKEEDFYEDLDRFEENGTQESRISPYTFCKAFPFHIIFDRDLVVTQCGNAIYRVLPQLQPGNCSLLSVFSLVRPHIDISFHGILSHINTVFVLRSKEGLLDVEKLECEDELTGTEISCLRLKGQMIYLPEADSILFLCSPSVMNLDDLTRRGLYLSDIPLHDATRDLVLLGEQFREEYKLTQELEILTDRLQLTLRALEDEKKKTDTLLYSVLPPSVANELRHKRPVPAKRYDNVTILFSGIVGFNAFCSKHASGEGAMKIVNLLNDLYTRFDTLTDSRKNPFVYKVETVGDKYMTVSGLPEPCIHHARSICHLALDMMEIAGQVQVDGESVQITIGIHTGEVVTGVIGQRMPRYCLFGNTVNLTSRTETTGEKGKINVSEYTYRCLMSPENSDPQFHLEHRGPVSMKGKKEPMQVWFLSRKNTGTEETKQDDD
Test: Cell-based sGC Functional Assay (CASA Assay), cGMP generation in CHO-K1/sGC cells
Conditions: without ODQ incubation; for EC50: read-out: inflection points (IP)
Excerpt: Cell-based sGC Functional Assay (CASA Assay)
sGC is a heme-containing enzyme that converts GTP to secondary messenger cGMP. Increases in cGMP levels affect several physiological processes including vasorelaxation through multiple downstream pathways. […] Heme-dependent activators (HDAs) preferentially activate sGC containing a ferrous heme group. To determine the effect of sGC activators on enzyme activity, the CASA assay was developed to monitor the generation of cGMP in a cell line that stably expresses the heterodimeric sGC protein.
A CHO-K1 cell line stably expressing the sGC a up heterodimer was generated using a standard transfection protocol. CHO-K1 cells were transfected with plasmids pIREShyghsGCα1 and pIRESneo-hsGCβ1 simultaneously using FUGENE reagent. Clones that stably express both subunits were selected with hygromycin and neomycin for weeks. Clone #7 was chosen for the assay and was designated CHO-K1/sGC. CHO-K1/sGC cells were maintained in F-K12 medium containing 10% heat-inactivated Fetal Bovine Serum (FBS), 100 μg/mL penicillin/streptomycin, 0.5 mg/mL hygromycin and 0.25 mg/mL G418. On the day of the assay, cells were harvested in EBSS Assay Buffer (EAB) containing 5 mM MgCl2, 10 mM HEPES (4-(2-hydroxyethyppiperazine-1-ethanesulfonic acid) and 0.05% BSA (bovine serum albumin) and cell density was adjusted to 2×10^6/mL with EAB. IBMX (3-isobutyl-1-methylxanthin, 0.5 mM) was added to inhibit degradation of cGMP. Compounds were diluted from DMSO stock solutions and added to the assay at a final DMSO concentration of 1%. Cells were incubated with compounds in the presence and absence of 10 μM of 1H-(1,2,4)oxadiazolo(4,3-a) quinoxalin-1-one (ODQ) for 1 hr at 37° C. At the end of the incubation period, the reaction was terminated and the cells were lysed. The level of intracellular cGMP was determined using an HTRF-based assay kit (CisBio, 62GM2PEC), which detects the displacement of a fluorescence labeled cGMP from its specific antibody. The amount of cGMP was plotted against compound concentration in PRISM software and the IP and maximum fold induction over DMSO control were derived from the plot.

SMILES | Maximum fold induction over DMSO control | EC50 [nM]
CC1(c2ccccc2)C(=O)Nc2nc(-n3nc(CCC(F)(F)C(F)(F)F)c4cc(F)ccc43)nc(N)c21 (stereo not drawn) [Example 26, 4-amino-2-[5-fluoro-3-(3,3,4,4,4-pentafluorobutyl)-1H-indazol-1-yl]-5-methyl-5-phenyl-5,7-dihydro-6H-pyrrolo[2,3-d]pyrimidin-6-one] | 156 | 212
CC1(c2ccccc2)C(=O)Nc2nc(-c3nn(CCC(F)(F)C(F)(F)F)c4cc(Cl)ccc34)nc(N)c21 (stereo not drawn) [Example 58, 4-Amino-2-[6-Chloro-1-(3,3,4,4,4-Pentafluorobutyl)-1H-Indazol-3-yl]-5-Methyl-5-Phenyl-5,7-Dihydro-6H-Pyrrolo[2,3-D]Pyrimidin-6-One] | 225 | 50
CC1(c2ccccc2)C(=O)Nc2nc(-n3nc(CCC(F)(F)C(F)(F)F)c4cc(Cl)ccc43)nc(N)c21 (stereo not drawn) [Example 2, 4-Amino-2-[5-Chloro-3-(3,3,4,4,4-Pentafluorobutyl)-1H-Indazol-1-yl]-5-Methyl-5-Phenyl-5,7-Dihydro-6H-Pyrrolo[2,3-D]Pyrimidin-6-One] | 133 | 114
CC1(c2ccccc2)C(=O)Nc2nc(-c3nc(CCC(F)(F)C(F)(F)F)n4cc(Cl)ccc34)nc(N)c21 (stereo not drawn) [Example 136, 4-amino-2-[6-chloro-3-(3,3,4,4,4-pentafluorobutyl)imidazo[1,5-a]pyridin-1-yl]-5-methyl-5-phenyl-5,7-dihydro-6H-pyrrolo[2,3-d]pyrimidin-6-one] | 52 | 139
CC1(c2ccccc2)C(=O)Nc2nc(-c3nn(CCC(F)(F)C(F)(F)F)c4cc(F)ccc34)nc(N)c21 (stereo not drawn) [Example 70, 4-amino-2-[6-fluoro-1-(3,3,4,4,4-pentafluorobutyl)-1H-indazol-3-yl]-5-methyl-5-phenyl-5,7-dihydro-6H-pyrrolo[2,3-d]pyrimidin-6-one] | 126 | 46
CC1(c2ccc(F)cc2)C(=O)Nc2nc(-c3nc(CCC(F)(F)C(F)(F)F)n4cc(Cl)ccc34)nc(N)c21 (stereo not drawn) [Example 105, 4-Amino-2-[6-Chloro-3-(3,3,4,4,4-Pentafluorobutyl)Imidazo[1,5-A]Pyridin-1-yl]-5-(4-Fluorophenyl)-5-Methyl-5,7-Dihydro-6H-Pyrrolo[2,3-D]Pyrimidin-6-One] | 150 | 258
